Each block holds one compound with its values, some of them ahead of it. The source made the active and inactive calls.
Tests used:
Type in all cases: functional
[1] = molecular target: Protein kinase C theta type (Homo sapiens, UniProt Q04759); test: Navigating the Kinome. Panel member name: PRKCQ
[2] = molecular target: Ribosomal protein S6 kinase alpha-3 (Homo sapiens, UniProt P51812);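 also: measured within a kinome-wide profiling panel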
[3] = molecular target: Dual specificity protein kinase CLK2 (Homo sapiens, UniProt P49760)
[4] = molecular target: Dual specificity mitogen-activated protein kinase kinase 1 (Homo sapiens, UniProt Q02750); test: Navigating the Kinome. Panel member name: MAP2K1
[5] = molecular target: Serine/threonine-protein kinase TBK1 (Homo sapiens, UniProt Q9UHD2); test: Navigating the Kinome. Panel member name: TBK1
[6] = molecular target: 5'-AMP-activated protein kinase catalytic subunit alpha-1 (Homo sapiens, UniProt Q13131)
[7] = molecular target: ALK tyrosine kinase receptor (Homo sapiens, UniProt Q9UM73);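 also: ALK tested as one member of a kinase panel screen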
[8] = molecular target: Proto-oncogene tyrosine-protein kinase receptor Ret (Homo sapiens, UniProt P07949);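 also: measured within a kinome-wide profiling panel, RET as the panel member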
[9] = molecular target: Tyrosine-protein kinase receptor TYRO3 (Homo sapiens, UniProt Q06418);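 also: TYRO3 value obtained as one member of a kinome-wide profiling panel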
[10] = molecular target: Serine/threonine-protein kinase D3 (Homo sapiens, UniProt O94806);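 also: determined within a kinase panel screen, with PRKCN as the panel member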
[11] = molecular target: Death-associated protein kinase 3 (Homo sapiens, UniProt O43293);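 also: measured as one member of a kinome-wide profiling panel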
[12] = molecular target: Activin receptor type-1 (Homo sapiens, UniProt Q04771); test: Navigating the Kinome. Panel member name: ACVR1
[13] = molecular target: Mitogen-activated protein kinase 8 (Homo sapiens, UniProt P45983);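 also: value comes from one member of a kinome-wide kinase profiling panel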
[14] = molecular target: Serine/threonine-protein kinase pim-1 (Homo sapiens, UniProt P11309)
[15] = molecular target: Aurora kinase A (Homo sapiens, UniProt O14965);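 also: value from the Navigating the Kinome kinase panel profiling, panel entry STK6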
[16] = molecular target: Serine/threonine-protein kinase PAK 4 (Homo sapiens, UniProt O96013);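 also: value obtained within a kinome profiling panel in which PAK4 was one of the panel members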
[17] = molecular target: Fibroblast growth factor receptor 1 (Homo sapiens, UniProt P11362)
[18] = molecular target: Casein kinase I isoform alpha (Homo sapiens, UniProt P48729)
[19] = molecular target: LIM domain kinase 1 (Homo sapiens, UniProt P53667); test: Navigating the Kinome. Panel member name: LIMK1
[20] = molecular target: T1, Glycogen synthase kinase-3 alpha (Homo sapiens, UniProt P49840);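 also: GSK3A result taken from a broad kinome-wide kinase panel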
[21] = molecular target: Mitogen-activated protein kinase kinase kinase kinase 2 (Homo sapiens, UniProt Q12851);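 also: measured as one member of a kinome-wide kinase panel, with MAP4K2 as the panel entry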
[22] = molecular target: Serine/threonine-protein kinase Chk1 (Homo sapiens, UniProt O14757);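 also: measured as one member of a kinome-wide kinase profiling panel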
[23] = molecular target: Tyrosine-protein kinase ABL1 (Homo sapiens, UniProt P00519)
[24] = molecular target: Vascular endothelial growth factor receptor 2 (Homo sapiens, UniProt P35968)
[25] = molecular target: Dual specificity tyrosine-phosphorylation-regulated kinase 1B (Homo sapiens, UniProt Q9Y463); test: Navigating the Kinome. Panel member name: DYRK1B
[26] = molecular target: cAMP-dependent protein kinase catalytic subunit PRKX (Homo sapiens, UniProt P51817)
[27] = molecular target: Focal adhesion kinase 1 (Homo sapiens, UniProt Q05397);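 also: measured as one member of a kinome panel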
[28] = molecular target: Leucine-rich repeat serine/threonine-protein kinase 2 (Homo sapiens, UniProt Q5S007);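 also: value from a broad kinome-wide panel profiling study in which LRRK2 was one of the kinases tested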
[29] = molecular target: Aurora kinase B (Homo sapiens, UniProt Q96GD4)
[30] = molecular target: Cyclin-dependent kinase 19 (Homo sapiens, UniProt Q9BWU1); test: Navigating the Kinome. Panel member name: CDC2L6
[31] = molecular target: Rho-associated protein kinase 1 (Homo sapiens, UniProt Q13464);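 also: measured within a broad kinome-wide panel profiling many kinases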
[32] = molecular target: Cyclin-dependent kinase 8 (Homo sapiens, UniProt P49336); test: Navigating the Kinome. Panel member name: CDK8
[33] = molecular target: Cyclin-dependent kinase 7 (Homo sapiens, UniProt P50613);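 also: value comes from a kinome-wide kinase profiling panel in which CDK7 is one member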
[34] = molecular target: Vascular endothelial growth factor receptor 1 (Homo sapiens, UniProt P17948);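 also: measured within a kinome-wide profiling panel, FLT1 as the panel member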
[35] = molecular target: T2, Glycogen synthase kinase-3 beta (Homo sapiens, UniProt P49841);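 also: value comes from a broad kinome profiling panel, with GSK3B as the panel member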
[36] = molecular target: Cyclin-dependent kinase 9 (Homo sapiens, UniProt P50750);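 also: value from the CDK9 entry of a kinome-spanning kinase panel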
[37] = molecular target: cAMP-dependent protein kinase catalytic subunit alpha (Homo sapiens, UniProt P17612)
[38] = molecular target: Dual specificity protein kinase CLK4 (Homo sapiens, UniProt Q9HAZ1)
[39] = molecular target: Mitogen-activated protein kinase kinase kinase kinase 4 (Homo sapiens, UniProt O95819)
[40] = molecular target: Macrophage-stimulating protein receptor (Homo sapiens, UniProt Q04912); test: Navigating the Kinome. Panel member name: MST1R
[41] = molecular target: Macrophage colony-stimulating factor 1 receptor (Homo sapiens, UniProt P07333);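 also: value comes from the Navigating the Kinome screening panel, CSF1R member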
[42] = molecular target: Dual specificity tyrosine-phosphorylation-regulated kinase 1A (Homo sapiens, UniProt Q13627);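 also: measured against DYRK1A as one member of a broad kinome profiling panel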
[43] = molecular target: Calcium/calmodulin-dependent protein kinase type II subunit alpha (Homo sapiens, UniProt Q9UQM7); test: Navigating the Kinome. Panel member name: CAMK2A
[44] = molecular target: Leukocyte tyrosine kinase receptor (Homo sapiens, UniProt P29376); test: Navigating the Kinome. Panel member name: LTK
[45] = molecular target: T2, Glycogen synthase kinase-3 beta; test: inhibition of human GSK3B activity – biochemical, microfluidics, dry powder samples, set 2, dose response (AID 623989)
[46] = molecular target: T1, Glycogen synthase kinase-3 alpha; test: GSK3A enzyme blockers, homolog specificity check – biochemical, microfluidics, dry powder samples, set 2, selectivity assay for GSK3beta inhibitor project, dose response (AID 623978)
[47] = molecular target: Cyclin-dependent kinase 5/CDK5 activator 1 (Homo sapiens, UniProt Q00535); test: inhibitors of human CDK5 activity – biochemical, microfluidic mobility shift, dry powder, set 2, selectivity assay for GSK3beta inhibitor project, dose response (AID 623979)
[48] = molecular target: T3, Neuropeptides B/W receptor type 1 (Homo sapiens, UniProt P48145); test: human NPBW1 receptor blockade, IC50 – cell-based, fluorescence, dose response, set 5, late-stage follow-up (AID 588566)
T3 sequence (P48145 whole entry): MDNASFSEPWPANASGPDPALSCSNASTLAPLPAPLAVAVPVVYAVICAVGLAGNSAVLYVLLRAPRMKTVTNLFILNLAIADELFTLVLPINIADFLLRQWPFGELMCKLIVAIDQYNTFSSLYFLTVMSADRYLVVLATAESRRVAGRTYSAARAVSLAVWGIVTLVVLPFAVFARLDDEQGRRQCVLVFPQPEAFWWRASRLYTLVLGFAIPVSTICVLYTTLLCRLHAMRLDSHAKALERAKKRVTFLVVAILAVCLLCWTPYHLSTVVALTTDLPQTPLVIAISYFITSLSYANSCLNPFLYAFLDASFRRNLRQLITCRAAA

[49] = molecular target: Melanin-concentrating hormone receptor 1 (Homo sapiens, UniProt Q99705); test: Late-stage fluorescence-based counterscreen for antagonists of the G-protein coupled receptor 7 (GPR7): cell-based dose response assay to identify antagonists of the melanin-concentrating hormone receptor 1 (MCHR1) Set 5.

T1 sequence (P49840 whole entry): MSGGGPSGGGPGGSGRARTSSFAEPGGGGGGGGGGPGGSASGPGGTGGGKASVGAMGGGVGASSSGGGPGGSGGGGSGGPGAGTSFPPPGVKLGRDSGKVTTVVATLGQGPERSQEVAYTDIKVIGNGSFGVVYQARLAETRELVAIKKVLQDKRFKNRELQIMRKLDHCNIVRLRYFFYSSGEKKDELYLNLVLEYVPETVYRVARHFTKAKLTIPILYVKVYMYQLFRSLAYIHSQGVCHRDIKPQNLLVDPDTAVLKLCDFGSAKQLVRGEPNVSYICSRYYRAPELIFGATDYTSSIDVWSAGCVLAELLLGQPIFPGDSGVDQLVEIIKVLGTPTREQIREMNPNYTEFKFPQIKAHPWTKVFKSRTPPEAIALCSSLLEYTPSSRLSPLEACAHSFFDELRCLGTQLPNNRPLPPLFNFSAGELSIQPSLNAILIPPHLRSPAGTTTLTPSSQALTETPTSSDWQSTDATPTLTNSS
T2 sequence (P49841 whole entry): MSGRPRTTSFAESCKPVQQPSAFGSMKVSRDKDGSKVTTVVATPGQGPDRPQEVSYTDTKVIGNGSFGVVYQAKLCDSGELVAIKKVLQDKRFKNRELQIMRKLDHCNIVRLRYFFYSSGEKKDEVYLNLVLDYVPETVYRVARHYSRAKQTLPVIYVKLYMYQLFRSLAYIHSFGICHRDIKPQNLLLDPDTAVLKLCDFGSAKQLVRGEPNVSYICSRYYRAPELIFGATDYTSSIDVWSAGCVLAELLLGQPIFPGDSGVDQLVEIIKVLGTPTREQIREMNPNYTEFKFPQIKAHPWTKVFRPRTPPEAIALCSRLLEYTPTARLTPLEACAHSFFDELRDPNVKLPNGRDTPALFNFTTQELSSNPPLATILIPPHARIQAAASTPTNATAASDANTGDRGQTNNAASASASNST
Casein kinase I isoform alpha, sequence (P48729 whole entry, the tested form may be a part, canonical isoform): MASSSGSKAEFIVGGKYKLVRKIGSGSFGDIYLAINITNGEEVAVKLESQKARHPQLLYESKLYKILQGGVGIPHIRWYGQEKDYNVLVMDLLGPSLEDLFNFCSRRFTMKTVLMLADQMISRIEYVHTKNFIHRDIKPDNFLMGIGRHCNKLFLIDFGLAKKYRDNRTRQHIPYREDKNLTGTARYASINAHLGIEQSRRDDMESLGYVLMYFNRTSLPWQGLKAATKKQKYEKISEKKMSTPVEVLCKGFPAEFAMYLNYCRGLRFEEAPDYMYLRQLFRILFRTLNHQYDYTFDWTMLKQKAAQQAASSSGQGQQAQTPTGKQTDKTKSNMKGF
Cyclin-dependent kinase 8, sequence (P49336 whole entry): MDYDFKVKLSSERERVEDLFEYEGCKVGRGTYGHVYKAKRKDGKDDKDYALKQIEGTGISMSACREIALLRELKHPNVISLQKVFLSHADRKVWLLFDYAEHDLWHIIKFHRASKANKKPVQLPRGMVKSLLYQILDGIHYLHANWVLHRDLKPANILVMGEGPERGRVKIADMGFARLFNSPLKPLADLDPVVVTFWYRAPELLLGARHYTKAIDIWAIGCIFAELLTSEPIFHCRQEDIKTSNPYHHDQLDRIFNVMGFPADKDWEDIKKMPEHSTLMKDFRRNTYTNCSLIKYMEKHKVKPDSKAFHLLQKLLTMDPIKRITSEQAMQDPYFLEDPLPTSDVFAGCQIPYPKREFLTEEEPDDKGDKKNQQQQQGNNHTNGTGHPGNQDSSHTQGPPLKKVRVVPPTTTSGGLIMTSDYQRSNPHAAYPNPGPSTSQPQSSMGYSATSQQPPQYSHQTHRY
Calcium/calmodulin-dependent protein kinase type II subunit alpha, sequence (Q9UQM7 whole entry): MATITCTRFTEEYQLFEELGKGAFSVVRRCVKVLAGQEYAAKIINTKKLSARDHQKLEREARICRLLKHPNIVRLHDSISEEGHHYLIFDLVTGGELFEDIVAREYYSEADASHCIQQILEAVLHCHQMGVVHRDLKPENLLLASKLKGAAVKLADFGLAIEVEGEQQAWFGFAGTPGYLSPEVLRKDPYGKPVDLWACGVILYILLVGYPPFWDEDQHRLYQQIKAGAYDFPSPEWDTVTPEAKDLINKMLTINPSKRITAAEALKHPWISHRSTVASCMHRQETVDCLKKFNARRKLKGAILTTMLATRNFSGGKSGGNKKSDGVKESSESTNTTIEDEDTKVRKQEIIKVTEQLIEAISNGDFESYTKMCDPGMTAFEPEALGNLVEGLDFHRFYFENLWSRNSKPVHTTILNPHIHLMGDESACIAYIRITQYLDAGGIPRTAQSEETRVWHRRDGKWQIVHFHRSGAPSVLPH
Vascular endothelial growth factor receptor 1, sequence (P17948 whole entry): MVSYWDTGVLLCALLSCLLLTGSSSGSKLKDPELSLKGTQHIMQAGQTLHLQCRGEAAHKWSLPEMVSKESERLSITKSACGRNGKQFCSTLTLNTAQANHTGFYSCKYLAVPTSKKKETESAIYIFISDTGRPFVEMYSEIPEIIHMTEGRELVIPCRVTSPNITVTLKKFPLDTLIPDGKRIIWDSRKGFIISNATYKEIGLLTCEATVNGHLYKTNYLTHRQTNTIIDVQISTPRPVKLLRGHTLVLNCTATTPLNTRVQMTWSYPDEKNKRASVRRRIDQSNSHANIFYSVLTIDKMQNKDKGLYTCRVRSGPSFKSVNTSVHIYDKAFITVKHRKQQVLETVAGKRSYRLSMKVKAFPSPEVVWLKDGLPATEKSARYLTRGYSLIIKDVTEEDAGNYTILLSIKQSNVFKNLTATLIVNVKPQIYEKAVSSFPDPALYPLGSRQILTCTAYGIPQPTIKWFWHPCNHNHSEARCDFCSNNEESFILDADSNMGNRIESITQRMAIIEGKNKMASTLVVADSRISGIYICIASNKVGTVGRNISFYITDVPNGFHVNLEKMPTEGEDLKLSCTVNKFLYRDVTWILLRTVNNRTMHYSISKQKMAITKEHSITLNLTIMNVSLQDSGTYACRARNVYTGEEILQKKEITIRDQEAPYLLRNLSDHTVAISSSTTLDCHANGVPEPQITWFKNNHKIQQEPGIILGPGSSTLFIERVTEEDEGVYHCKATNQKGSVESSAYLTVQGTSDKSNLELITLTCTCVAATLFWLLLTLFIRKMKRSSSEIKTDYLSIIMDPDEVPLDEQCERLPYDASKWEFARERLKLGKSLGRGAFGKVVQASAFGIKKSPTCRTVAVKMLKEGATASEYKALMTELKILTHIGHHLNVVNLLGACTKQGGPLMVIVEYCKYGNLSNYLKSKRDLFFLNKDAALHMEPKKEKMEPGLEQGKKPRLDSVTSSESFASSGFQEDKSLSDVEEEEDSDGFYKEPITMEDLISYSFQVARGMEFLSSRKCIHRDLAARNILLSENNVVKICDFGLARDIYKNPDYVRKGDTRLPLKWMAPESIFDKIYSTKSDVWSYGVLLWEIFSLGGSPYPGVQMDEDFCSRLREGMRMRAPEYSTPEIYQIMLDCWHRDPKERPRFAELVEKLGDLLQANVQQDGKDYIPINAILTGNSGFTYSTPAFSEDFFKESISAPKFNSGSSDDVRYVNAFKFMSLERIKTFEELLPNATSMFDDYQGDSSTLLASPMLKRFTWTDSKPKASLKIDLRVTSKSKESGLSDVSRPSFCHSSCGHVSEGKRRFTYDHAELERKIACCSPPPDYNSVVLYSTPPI
Serine/threonine-protein kinase Chk1, sequence (O14757 whole entry): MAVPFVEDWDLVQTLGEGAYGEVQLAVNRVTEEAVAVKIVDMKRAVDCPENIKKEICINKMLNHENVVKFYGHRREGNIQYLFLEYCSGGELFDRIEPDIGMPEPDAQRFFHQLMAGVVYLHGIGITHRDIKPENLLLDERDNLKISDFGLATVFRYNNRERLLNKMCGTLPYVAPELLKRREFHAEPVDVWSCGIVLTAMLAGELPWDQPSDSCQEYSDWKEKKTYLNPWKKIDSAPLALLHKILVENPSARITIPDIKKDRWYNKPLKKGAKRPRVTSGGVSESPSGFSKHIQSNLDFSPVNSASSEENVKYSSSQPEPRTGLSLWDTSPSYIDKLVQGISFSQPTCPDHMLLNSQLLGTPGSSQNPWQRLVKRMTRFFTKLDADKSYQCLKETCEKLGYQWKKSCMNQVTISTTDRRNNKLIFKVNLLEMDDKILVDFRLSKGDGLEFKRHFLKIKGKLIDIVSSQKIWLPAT
Serine/threonine-protein kinase TBK1, sequence (Q9UHD2 whole entry): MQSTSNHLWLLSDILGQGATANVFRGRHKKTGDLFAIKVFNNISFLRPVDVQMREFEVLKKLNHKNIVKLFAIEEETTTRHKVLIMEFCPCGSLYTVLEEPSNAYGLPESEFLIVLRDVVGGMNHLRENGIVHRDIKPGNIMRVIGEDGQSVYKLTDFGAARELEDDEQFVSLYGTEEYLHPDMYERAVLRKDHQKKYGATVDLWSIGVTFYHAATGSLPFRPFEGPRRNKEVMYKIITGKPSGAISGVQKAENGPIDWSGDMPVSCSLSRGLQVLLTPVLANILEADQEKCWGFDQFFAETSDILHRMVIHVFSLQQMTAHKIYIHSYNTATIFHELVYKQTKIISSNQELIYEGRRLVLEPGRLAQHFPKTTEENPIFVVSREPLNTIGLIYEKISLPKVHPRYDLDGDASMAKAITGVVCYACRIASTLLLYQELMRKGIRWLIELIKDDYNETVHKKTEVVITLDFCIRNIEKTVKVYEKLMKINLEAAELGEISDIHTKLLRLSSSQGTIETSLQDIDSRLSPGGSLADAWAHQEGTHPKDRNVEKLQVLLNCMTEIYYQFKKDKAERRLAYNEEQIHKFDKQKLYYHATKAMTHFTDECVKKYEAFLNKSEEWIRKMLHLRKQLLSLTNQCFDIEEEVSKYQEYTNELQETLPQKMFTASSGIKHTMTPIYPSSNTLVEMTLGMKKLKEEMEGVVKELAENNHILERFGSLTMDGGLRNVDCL

Ki [1]: 3.16 µM (active)
Ki [2]: 25.1 µM (active)
Ki [3]: 15.8 µM (active)
Ki [4]: 10 µM (active)
Ki [5]: 79.4 µM (active)
Ki [6]: 31.6 µM (active)
Ki [7]: 63.1 µM (active)
Ki [8]: 63.1 µM (active)
Ki [9]: 79.4 µM (active)
Ki [10]: 39.8 µM (active)
Ki [12]: 79.4 µM (active)
Ki [13]: 63.1 µM (active)
Ki [14]: 39.8 µM (active)
Ki [15]: 63.1 µM (active)
Ki [16]: 79.4 µM (active)
Ki [17]: 63.1 µM (active)
Ki [18]: 1.58 µM (active)
Ki [19]: 15.8 µM (active)
Ki [20]: 3.98 µM (active)
Ki [21]: 10 µM (active)
Ki [22]: 12.6 µM (active)
Ki [23]: 79.4 µM (active)
Ki [24]: 7.94 µM (active)
Ki [25]: 1.26 µM (active)
Ki [26]: 15.8 µM (active)
Ki [27]: 100 µM (active)
Ki [28]: 10 µM (active)
Ki [29]: 31.6 µM (active)
Ki [30]: > 100 µM (inactive)
Ki [31]: 1.58 µM (active)
Ki [32]: 0.794 µM (active)
Ki [33]: 12.6 µM (active)
Ki [34]: 7.94 µM (active)
Ki [35]: 5.01 µM (active)
Ki [36]: 0.501 µM (active)
Ki [37]: 3.98 µM (active)
Ki [38]: 0.794 µM (active)
Ki [39]: 25.1 µM (active)
Ki [40]: 39.8 µM (active)
Ki [41]: > 100 µM (inactive)
Ki [42]: 3.16 µM (active)
Ki [43]: 79.4 µM (active)
Ki [44]: 12.6 µM (active)
SMILES: NC(=O)c1cc2ccncc2s1
Ki [11]: 2.51 µM (active)

AC50 [45]: 0.958 µM (active)
AC50 [46]: 10.4 µM (active)
AC50 [47]: 16.8 µM (active)
SMILES: COc1cc(/C=N/n2c(S)nnc2C2CCCCC2)cc(Br)c1O

IC50 [48]: 0.569 µM (active)
IC50 [49]: 12.1 µM (inactive)
SMILES: COc1cccc(C(C#N)c2c(Cl)cnn(Cc3cccc4ccccc34)c2=O)c1 (centres undefined)

— ChEMBL document CHEMBL1201862, “PubChem BioAssay data set” (2004)
